Experimental findings from US8952157B2, “Apoptosis-inducing agents for the treatment of cancer and immune and autoimmune diseases” (AbbVie Inc., priority 2008, dated 2015) are described below.

The target of this experiment is GST-Bcl-2 (Homo sapiens (Human), UniProt P10415). The experiment in a line: Time Resolved-Fluorescence Resonance Energy Transfer (TR-FRET) Bcl-2 binding assay. The conditions noted are these: GST-Bcl-2 1 nM, F-Bak peptide probe 100 nM, Tb-anti-GST antibody 1 nM; Ki by Wang's equation. In short, it runs like this: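 Competition TR-FRET: GST-Bcl-2 with fluorescent Bak peptide probe and Tb-anti-GST antibody, compounds serially diluted from 50 μM (2× start, 10% DMSO).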
Chain of GST-Bcl-2 (P10415 whole entry): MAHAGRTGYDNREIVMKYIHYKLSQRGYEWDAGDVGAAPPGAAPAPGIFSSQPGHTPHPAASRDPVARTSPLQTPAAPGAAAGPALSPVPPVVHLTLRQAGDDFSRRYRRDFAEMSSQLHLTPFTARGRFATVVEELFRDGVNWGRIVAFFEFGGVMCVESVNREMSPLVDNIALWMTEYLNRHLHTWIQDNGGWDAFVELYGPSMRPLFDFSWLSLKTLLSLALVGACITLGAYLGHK
Background: Time-resolved FRET reads energy transfer from a long-lived donor to a nearby acceptor.
As a reminder, the Ki is the dissociation constant of the complex between target and ligand, obtained from inhibition or displacement. A lower Ki goes with tighter binding. For `CC(C)(C)OC(=O)Nc1ccc(Oc2cc(N3CCN(Cc4ccccc4-c4ccc(Cl)cc4)CC3)ccc2C(=O)NS(=O)(=O)c2ccc(NCC3CCOCC3)c([N+](=O)[O-])c2)cc1` [Example 83, tert-butyl 4-(5-(4-((4′-chloro-1,1′-biphenyl-2-yl)methyl)piperazin-1-yl)-2-((((3-nitro-4-((tetrahydro-2H-pyran-4-ylmethyl)amino)phenyl)sulfonyl)amino)carbonyl)phenoxy)phenylcarbamate], the Ki was greater than 1200 nM.
The same measure for `CN1CCC(Nc2ccc(S(=O)(=O)NC(=O)c3ccc(N4CCN(Cc5cc6c(cc5-c5ccc(Cl)cc5)OCO6)CC4)cc3Oc3ccccc3Cl)cc2[N+](=O)[O-])CC1` [Example 183, 2-(2-chlorophenoxy)-4-(4-{[6-(4-chlorophenyl)-1,3-benzodioxol-5-yl]methyl}piperazin-1-yl)-N-({4-[(1-methylpiperidin-4-yl)amino]-3-nitrophenyl}sulfonyl)benzamide]: 2.53 nM.
The compound `CN(C)C(=O)COc1ccc(Oc2cc(N3CCN(Cc4ccccc4-c4ccc(Cl)cc4)CC3)ccc2C(=O)NS(=O)(=O)c2ccc(NCC3CCOCC3)c([N+](=O)[O-])c2)cc1` [Example 101, 4-(4-((4′-chloro-1,1′-biphenyl-2-yl)methyl)piperazin-1-yl)-2-(4-(2-(dimethylamino)-2-oxoethoxy)phenoxy)-N-((3-nitro-4-((tetrahydro-2H-pyran-4-ylmethyl)amino)phenyl)sulfonyl)benzamide] gave a Ki of 670 nM.
In turn, `CN1CCC(Nc2ccc(S(=O)(=O)NC(=O)c3ccc(N4CCN(CC5=C(c6ccc(Cl)cc6)CC(C)(C)CC5)CC4)cc3OCc3csc(NC(=O)OC(C)(C)C)n3)cc2[N+](=O)[O-])CC1` [Example 222, tert-butyl 4-[(5-(4-{[2-(4-chlorophenyl)-4,4-dimethylcyclohex-1-en-1-yl]methyl}piperazin-1-yl)-2-{[({4-[(1-methylpiperidin-4-yl)amino]-3-nitrophenyl}sulfonyl)amino]carbonyl}phenoxy)methyl]-1,3-thiazol-2-ylcarbamate] displayed a Ki greater than 1200 nM.
In the case of `CC1(C)CCC(CN2CCN(c3ccc(C(=O)NS(=O)(=O)c4ccc(NCCCN5CCOCC5)c([N+](=O)[O-])c4)c(Oc4ccc(N)c(Cl)c4)c3)CC2)=C(c2ccc(Cl)cc2)C1` [Example 52, 2-(4-amino-3-chlorophenoxy)-4-(4-((2-(4-chlorophenyl)-4,4-dimethylcyclohex-1-en-1-yl)methyl)piperazin-1-yl)-N-((4-((3-morpholin-4-ylpropyl)amino)-3-nitrophenyl)sulfonyl)benzamide] it was 0.072 nM.
In turn, `CC1(C)CCC(CN2CCN(c3ccc(C(=O)NS(=O)(=O)c4ccc(NC5CCN(C6CCOCC6)CC5)c([N+](=O)[O-])c4)c(Oc4cccc5c4CC(=O)N5)c3)CC2)=C(c2ccc(Cl)cc2)C1` [Example 289, 4-(4-{[2-(4-chlorophenyl)-4,4-dimethylcyclohex-1-en-1-yl]methyl}piperazin-1-yl)-N-({3-nitro-4-[(1-tetrahydro-2H-pyran-4-ylpiperidin-4-yl)amino]phenyl}sulfonyl)-2-[(2-oxo-2,3-dihydro-1H-indol-4-yl)oxy]benzamide] displayed a Ki of less than 0.01 nM.
Take `CN1CCN(Nc2ccc(S(=O)(=O)NC(=O)c3ccc(N4CCN(CC5=C(c6ccc(Cl)cc6)CC(C)(C)CC5)CC4)cc3Oc3ccc(O)cc3Cl)cc2[N+](=O)[O-])CC1` [Example 208, 2-(2-chloro-4-hydroxyphenoxy)-4-(4-{[2-(4-chlorophenyl)-4,4-dimethylcyclohex-1-en-1-yl]methyl}piperazin-1-yl)-N-({4-[(4-methylpiperazin-1-yl)amino]-3-nitrophenyl}sulfonyl)benzamide]: the Ki turned out to be 0.261 nM.
In the case of `CC1(C)CCC(CN2CCN(c3ccc(C(=O)NS(=O)(=O)c4ccc(NCC5CCOCC5)c([N+](=O)[O-])c4)c(Oc4ccc5[nH]cc(CCN)c5c4)c3)CC2)=C(c2ccc(Cl)cc2)C1` [Example 299, 2-{[3-(2-aminoethyl)-1H-indol-5-yl]oxy}-4-(4-{[2-(4-chlorophenyl)-4,4-dimethylcyclohex-1-en-1-yl]methyl}piperazin-1-yl)-N-({3-nitro-4-[(tetrahydro-2H-pyran-4-ylmethyl)amino]phenyl}sulfonyl)benzamide] it was 51.7 nM; in that of `CC1(C)CCC(CN2CCN(c3ccc(C(=O)NS(=O)(=O)c4ccc(NCCCN5CCOCC5)c([N+](=O)[O-])c4)c(Oc4ccccc4Cl)c3)CC2)=C(c2ccc(Cl)cc2)C1` [Example 116, 2-(2-chlorophenoxy)-4-(4-{[2-(4-chlorophenyl)-4,4-dimethylcyclohex-1-en-1-yl]methyl}piperazin-1-yl)-N-({4-[(3-morpholin-4-ylpropyl)amino]-3-nitrophenyl}sulfonyl)benzamide], 0.123 nM; in that of `CN(C)C(=O)Cc1ccccc1Oc1cc(N2CCN(Cc3ccccc3-c3ccc(Cl)cc3)CC2)ccc1C(=O)NS(=O)(=O)c1ccc(NCC2CCOCC2)c([N+](=O)[O-])c1` [Example 27, 4-(4-((4′-chloro-1,1′-biphenyl-2-yl)methyl)piperazin-1-yl)-2-(2-(2-(dimethylamino)-2-oxoethyl)phenoxy)-N-((3-nitro-4-((tetrahydro-2H-pyran-4-ylmethyl)amino)phenyl)sulfonyl)benzamide], 2.21 nM.
`CC1(C)CCC(CN2CCN(c3ccc(C(=O)NS(=O)(=O)c4ccc(OCC5(F)CCOCC5)c([N+](=O)[O-])c4)c(Oc4cc5cc[nH]c5cc4F)c3)CC2)=C(c2ccc(Cl)cc2)C1` [Example 296, 4-(4-{[2-(4-chlorophenyl)-4,4-dimethylcyclohex-1-en-1-yl]methyl}piperazin-1-yl)-2-[(6-fluoro-1H-indol-5-yl)oxy]-N-({4-[(4-fluorotetrahydro-2H-pyran-4-yl)methoxy]-3-nitrophenyl}sulfonyl)benzamide] returned a Ki of less than 0.01 nM.
In the case of `CN1CCC(Nc2ccc(S(=O)(=O)NC(=O)c3ccc(N4CCN(CC5=C(c6ccc(Cl)cc6)CC(C)(C)CC5)CC4)cc3Oc3ccc(Cl)c(Cl)c3)cc2[N+](=O)[O-])CC1` [Example 164, 4-(4-{[2-(4-chlorophenyl)-4,4-dimethylcyclohex-1-en-1-yl]methyl}piperazin-1-yl)-2-(3,4-dichlorophenoxy)-N-({4-[(1-methylpiperidin-4-yl)amino]-3-nitrophenyl}sulfonyl)benzamide], the Ki was 0.056 nM. In other words, the picomolar range.
In the case of `CC1(C)CCC(CN2CCN(c3ccc(C(=O)NS(=O)(=O)c4ccc(NCC5CCOCC5)c([N+](=O)[O-])c4)c(Oc4ccc(NC5CC5)nc4)c3)CC2)=C(c2ccc(Cl)cc2)C1` [Example 374, 4-(4-{[2-(4-chlorophenyl)-4,4-dimethylcyclohex-1-en-1-yl]methyl}piperazin-1-yl)-2-{[6-(cyclopropylamino)pyridin-3-yl]oxy}-N-({3-nitro-4-[(tetrahydro-2H-pyran-4-ylmethyl)amino]phenyl}sulfonyl)benzamide] it was 5.34 nM; in that of `CC1(C)CCC(CN2CCN(c3ccc(C(=O)NS(=O)(=O)c4cnc(OCC5(F)CCOCC5)c(F)c4)c(Oc4cnc(N)c(Cl)c4)c3)CC2)=C(c2ccc(Cl)cc2)C1` [Example 402, 2-[(6-amino-5-chloropyridin-3-yl)oxy]-4-(4-{[2-(4-chlorophenyl)-4,4-dimethylcyclohex-1-en-1-yl]methyl}piperazin-1-yl)-N-({5-fluoro-6-[(4-fluorotetrahydro-2H-pyran-4-yl)methoxy]pyridin-3-yl}sulfonyl)benzamide], 0.039 nM; in that of `CN1CCC(Nc2ccc(S(=O)(=O)NC(=O)c3ccc(N4CCN(CC5=C(c6ccc(Cl)cc6)CC(C)(C)CC5)CC4)cc3Oc3ccc(O)cc3Cl)cc2[N+](=O)[O-])CC1` [Example 207, 2-(2-chloro-4-hydroxyphenoxy)-4-(4-{[2-(4-chlorophenyl)-4,4-dimethylcyclohex-1-en-1-yl]methyl}piperazin-1-yl)-N-({4-[(1-methylpiperidin-4-yl)amino]-3-nitrophenyl}sulfonyl)benzamide], 0.074 nM.
In the case of `CN(C)CCOc1cccc(Oc2cc(N3CCN(Cc4ccccc4-c4ccc(Cl)cc4)CC3)ccc2C(=O)NS(=O)(=O)c2ccc(NCC3CCOCC3)c([N+](=O)[O-])c2)c1` [Example 39, 4-(4-((4′-chloro-1,1′-biphenyl-2-yl)methyl)piperazin-1-yl)-2-(3-(2-(dimethylamino)ethoxy)phenoxy)-N-((3-nitro-4-((tetrahydro-2H-pyran-4-ylmethyl)amino)phenyl)sulfonyl)benzamide] it was 0.019 nM.
Regarding `CCN1CCC(Nc2ccc(S(=O)(=O)NC(=O)c3ccc(N4CCN(CC5=C(c6ccc(Cl)cc6)CC(C)(C)CC5)CC4)cc3Oc3ccccc3Cl)cc2[N+](=O)[O-])CC1` [Example 47, 2-(2-chlorophenoxy)-4-(4-((2-(4-chlorophenyl)-4,4-dimethylcyclohex-1-en-1-yl)methyl)piperazin-1-yl)-N-((4-((1-ethylpiperidin-4-yl)amino)-3-nitrophenyl)sulfonyl)benzamide], the Ki came to 0.05 nM.
In the case of `CN(C)CCCNc1ccc(S(=O)(=O)NC(=O)c2ccc(N3CCN(CC4=C(c5ccc(Cl)cc5)CC(C)(C)CC4)CC3)cc2Oc2cccc3[nH]cc(CN4CCN(C)CC4)c23)cc1[N+](=O)[O-]` [Example 213, 4-(4-{[2-(4-chlorophenyl)-4,4-dimethylcyclohex-1-en-1-yl]methyl}piperazin-1-yl)-N-[(4-{[3-(dimethylamino)propyl]amino}-3-nitrophenyl)sulfonyl]-2-({3-[(4-methylpiperazin-1-yl)methyl]-1H-indol-4-yl}oxy)benzamide] it was 0.031 nM; in that of `COCCNc1ccc(S(=O)(=O)NC(=O)c2ccc(N3CCN(CC4=C(c5ccc(Cl)cc5)CC(C)(C)CC4)CC3)cc2Oc2cc3cc[nH]c3cc2F)cc1[N+](=O)[O-]` [Example 263, 4-(4-{[2-(4-chlorophenyl)-4,4-dimethylcyclohex-1-en-1-yl]methyl}piperazin-1-yl)-2-[(6-fluoro-1H-indol-5-yl)oxy]-N-({4-[(2-methoxyethyl)amino]-3-nitrophenyl}sulfonyl)benzamide], 0.11 nM.
